According to US20240058363A1 (Emyria, priority 2020, published 2024):

Columns and labels:
Format in all cases: in vivo, human
[1] = system: patients; assay: Adverse events recorded at each visit in patients on CBD only
Method: (§1) Patients were assessed monthly by the clinical team (doctor and nurse) and a visit schedule protocol was followed for each patient. A full medical history was conducted at the initial visit, including a detailed history of the clinical indication (including duration symptoms), comorbidities mental and cardiac health conditions, previous procedures, medications and therapies tried. Patients were reviewed as per the Schedule of Assessments (FIG. 2). Cannabinoid dose and Adverse events were also recorded at each visit after treatment began and categorised as mild (no product change indicated), moderate (product change indicated), severe (product cessation indicated) or serious (life-threatening/medical emergency).
Adverse events (AE) were recorded at each of the visits. AEs were categorised as either: Mild (required no change in dose or product), Moderate (required change in dose or product), Severe (required cessation of product) or Serious (medical emergency).
All AEs reported during treatment were recorded. Assessments included monitoring of any or all of the following parameters: the participant's clinical symptoms, laboratory, pathological, radiological or surgical history, physical examination findings, and/or or findings from blood/urine tests. The nature, time of onset, duration and severity will be documented, together with the Investigator's opinion of the relationship to the Medicinal cannabis product.
Review of the dose and side effects was conducted by the doctor at 2 weeks; the doctors then advise whether to increase/or decreases doses. Reviews and clinical visits beyond the 2 weeks occurred monthly or more often as required by the patient due to efficacy and side effects.

[2] = system: symptoms of depression; assay: DASS-21 depression score in patients treated with CBD only (clinical data registry); settings: for DASS-21 Depression Score, Post 1-month follow-up Mean (Std. dev): mean days of treatment 47 (+/−23)
Excerpt: (§2) Detailed demographic information and validated standardised questionnaires were collected as part of routine care. Written informed consent to treatment was obtained from all patients, as well as additional consent to participate in Emyria's clinical data registry, data from participating patients were anonymised, aggregated, and analysed to establish clinical efficacy.
Clinically validated tools were used to monitor patients for management of symptoms, quality of life, physical/emotional functioning, and concomitant medication usage. Patients were asked about their cannabis history and initially pre-screened for any illicit cannabis use before commencing on medicinal cannabis treatment using the Cannabis Use Disorder Identification Test (CUDIT), a urine screen was performed to confirm negative result for cannabis in their urine before they commence treatment. After they commenced on medicinal cannabis treatment they were initially treated with low doses and monitored for safety and efficacy of treatment before dose escalation is considered.
Patients are excluded from treatment with medicinal cannabis if they: were pregnant or breast-feeding; have untreated heart disease, heart failure or arrhythmia; a history of severe psychiatric disorders; active suicidal ideation; a history of dependence on cannabis; a history of dependence or abuse of psychoactive substances; detectable urinary THC before commencement of medicinal cannabis.
(§3) A potentially eligible individual who met any of the following criteria will be excluded from participation if the following criteria is met: • 1. Clinically recorded cannabis drug addiction, or cannabis use disorder including individuals with scores 8 or more on the Cannabis Use Disorder Identification Test (CUDIT). • 2. Untreated cardiovascular disease, arrhythmias (other than well controlled atrial fibrillation), or severe heart failure. • 3. History of suicide attempts or suicidal ideation. • 4. History of psychotic episode, schizophrenia or other psychotic disorders.
as §1
(§4) The doctors treating patients prescribed orally-based medicinal cannabis standardised products as per approval under the Therapeutic Goods Administration (TGA) through the Special Access Scheme (SAS) Category B and Authorised Prescriber (AP) scheme. The prescribing doctor will decide which product type including THC/CBD ratio and CBD only, based on TGA guidance documents (ie for pain THC/CBD type is generally prescribed) [see https://www.tga.gov.au/medicinal-cannabis-guidance-documents], but also will factor in patient's circumstances such as driving (then CBD only prescribed).
Treatment dosing by the prescribing doctor was in accordance with Emyria (Emerald Clinics) experience, well-tolerated with minimal side effects. Doctors reviewed patients after the 14 day (2 week), see the Schedule of Assessments (FIG. 2). Following the 2-week dosing review where a doctor may increase/decrease the dosage or change product type, patients were then seen regularly (generally monthly) as per the Schedule of Assessments (FIG. 2). Patients taking CBD only products were prescribed either oil or capsules. […]

[3] = system: symptoms of anxiety; assay: DASS-21 anxiety score in patients treated with CBD only (clinical data registry); settings: for DASS-21 Anxiety Score, Post 1-month follow-up Mean (Std. dev): mean days of treatment 47 (+/−23)
Excerpt: as §2
Clinically validated tools were used to monitor patients for management of symptoms, quality of life, physical/emotional functioning, and concomitant medication usage. […] After they commenced on medicinal cannabis treatment they were initially treated with low doses and monitored for safety and efficacy of treatment before dose escalation is considered.
as §3
Patients were assessed monthly by the clinical team (doctor and nurse) and a visit schedule protocol was followed for each patient. A full medical history was conducted at the initial visit, including a detailed history of the clinical indication (including duration symptoms), comorbidities mental and cardiac health conditions, previous procedures, medications and therapies tried. Patients were reviewed as per the Schedule of Assessments (FIG. 2).
as §4
Doctors reviewed patients after the 14 day (2 week), see the Schedule of Assessments (FIG. 2). Following the 2-week dosing review where a doctor may increase/decrease the dosage or change product type, patients were then seen regularly (generally monthly) as per the Schedule of Assessments (FIG. 2). Patients taking CBD only products were prescribed either oil or capsules.

[4] = among the 36 patients that experienced AEs
[5] = average treatment window of slightly under 13 days
[6] = dosage amounts between 50-200 mg per day
[7] = mean treatment horizon of 22 days
[8] = mean treatment period of 7 days
[9] = patients with subthreshold and clinically significant scores at baseline

SMILES: C=C(C)C1CCC(C)=CC1c1c(O)cc(CCCCC)cc1O (stereo not drawn) [cannabidiol, 2-[3-methyl-6-(1-methylethenyl)-2-cyclohexen-1-yl]-5-pentyl-1,3-benzenediol]
- Patients with any AEs ([1]; 36 out of 190 patients on CBD only): 19%
- Share of AEs that were mild (no change in dose or product) [1, 4]: 61%
- Share of AEs that were moderate (requiring change in dose or product) [1, 4]: 36%
- Patients with severe AEs (allergic reactions and constipation) resulting in cessation of the product ([1]; one of the 36 patients with AEs): 2.8%
- DASS-21 Depression Score, Post 1-month follow-up Mean (Std. dev) ([2]; All (n = 146), initial mean 17.4 (9.6), p 0.000): 12.8 (10.0)
- DASS-21 Depression Score, Post 1-month follow-up Mean (Std. dev) ([2]; Mod to extreme (n = 92), initial mean 22.7 (8.0), p 0.000): 16.4 (10.6)
- Decrease in depression score [2, 5]: −11.2
- DASS-21 Depression Score, Post 1-month follow-up Mean (Std. dev) ([2]; baseline category Extremely Severe 28+ (n = 28), initial mean 32.9 (5.2), p 0.000): 21.4 (11.6)
- DASS-21 Depression Score, Post 1-month follow-up Mean (Std. dev) ([2]; baseline category Mild 10-13 (n = 29), initial mean 10.9 (1.0), p 0.000): 7.1 (4.6)
- DASS-21 Depression Score, Post 1-month follow-up Mean (Std. dev) ([2]; baseline category Moderate 14-20 (n = 49), initial mean 16.4 (2.2), p 0.002): 12.8 (8.1)
- DASS-21 Depression Score, Post 1-month follow-up Mean (Std. dev) ([2]; baseline category Normal 0-9 (n = 25), initial mean 5.5 (2.3), p 0.543): 6.2 (4.8)
- DASS-21 Depression Score, Post 1-month follow-up Mean (Std. dev) ([2]; baseline category Severe 21-27 (n = 15), initial mean 24.1 (1.6), p 0.089): 18.8 (11.7)
- Change in depression score from initial visit to first follow-up versus dosage (FIG. 8) [2, 6]: correlated with a higher value of change indicating less symptoms of anxiety, stress and/or depression
- Fall in depression score [2, 7]: −3.9
- Decline in depression score [2, 8]: −17.5
- Mean DASS-21 depression score over the first six months (FIG. 15) [2, 9]: significant reduction over the 6-month period
- DASS-21 Anxiety Score, Post 1-month follow-up Mean (Std. dev) ([3]; All (n = 146), initial mean 13.7 (8.7), p 0.000): 9.1 (6.8)
- DASS-21 Anxiety Score, Post 1-month follow-up Mean (Std. dev) ([3]; Mod to extreme (n = 100), initial mean 17.7 (7.5), p 0.000): 11.0 (7.1)
- Decrease in anxiety score [3, 5]: −6.0
- DASS-21 Anxiety Score, Post 1-month follow-up Mean (Std. dev) ([3]; baseline category Mild 8-9 (n = 13), initial mean 8.0 (0.0), p 0.291): 7.1 (3.0)
- DASS-21 Anxiety Score, Post 1-month follow-up Mean (Std. dev) ([3]; baseline category Moderate 10-14 (n = 50), initial mean 12.1 (1.7), p 0.000): 8.8 (5.1)
- DASS-21 Anxiety Score, Post 1-month follow-up Mean (Std. dev) ([3]; baseline category Normal 0-7 (n = 33), initial mean 3.9 (1.7), p 0.667): 4.2 (3.7)
- DASS-21 Anxiety Score, Post 1-month follow-up Mean (Std. dev) ([3]; baseline category Severe 15-19 (n = 16), initial mean 17.0 (1.0), p 0.009): 10.9 (7.9)
- Change in anxiety score from initial visit to first follow-up versus dosage (FIG. 6) [3, 6]: correlated with a higher value of change indicating less symptoms of anxiety, stress and/or depression
- Fall in anxiety score [3, 7]: −5.7
- Decline in anxiety score [3, 8]: −10.5
- Mean DASS-21 anxiety score over the first six months (FIG. 14) [3, 9]: significant reduction over the 6-month period
